From patent US20200062773A1, “4,4a,5,7-TETRAHYDRO-3H-FURO[3,4-b]PYRIDINYL COMPOUNDS” (Janssen Pharmaceutlca NV, priority 2016, published 2020)

How the values were obtained:
BACE1 = molecular target: T1, BACE1 (Homo sapiens, UniProt P56817); experiment: BACE1 biochemical FRET based assay; settings: Method 1: recombinant BACE1 1 μg/ml, 120 min at room temperature, pH 5.0; for IC50: read-out: Biochemical FRET based assay pIC50 (converted)
T1 construct: recombinant BACE1 protein in a final concentration of 1 μg/ml
T1 sequence (P56817 46-501): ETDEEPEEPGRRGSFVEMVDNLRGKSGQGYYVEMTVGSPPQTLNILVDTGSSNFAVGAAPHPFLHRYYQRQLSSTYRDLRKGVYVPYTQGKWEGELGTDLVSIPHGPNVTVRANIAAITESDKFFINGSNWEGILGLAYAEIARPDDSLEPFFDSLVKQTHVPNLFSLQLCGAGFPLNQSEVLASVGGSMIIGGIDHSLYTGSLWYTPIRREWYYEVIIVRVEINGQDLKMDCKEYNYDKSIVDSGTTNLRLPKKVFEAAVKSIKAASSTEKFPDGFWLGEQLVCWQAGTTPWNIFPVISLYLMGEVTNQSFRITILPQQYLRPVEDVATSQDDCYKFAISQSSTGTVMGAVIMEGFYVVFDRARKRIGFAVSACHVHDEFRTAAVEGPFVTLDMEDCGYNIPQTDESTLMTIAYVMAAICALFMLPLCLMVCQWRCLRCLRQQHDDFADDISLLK
Description: BACE1 Biochemical Fret Based Assay
(§1) This assay is a Fluorescence Resonance Energy Transfer Assay (FRET) based assay. The substrate for this assay is an APP derived 13 amino acids peptide that contains the ‘Swedish’ Lys-Met/Asn-Leu mutation of the amyloid precursor protein (APP) beta-site APP-cleaving enzyme cleavage site. This substrate also contains two fluorophores: (7-methoxycoumarin-4-yl) acetic acid (Mca) is a fluorescent donor with excitation wavelength at 320 nm and emission at 405 nm and 2,4-Dinitrophenyl (Dnp) is a proprietary quencher acceptor. […] Upon cleavage by BACE1, the fluorophore Mca is separated from the quenching group Dnp, restoring the full fluorescence yield of the donor. The increase in fluorescence is linearly related to the rate of proteolysis.
Briefly in a 384-well format recombinant BACE1 protein in a final concentration of 1 μg/ml is incubated for 120 minutes at room temperature with 10 μm substrate in incubation buffer (40 mM Citrate buffer pH 5.0, 0.04% PEG, 4% DMSO) in the absence or presence of compound. Next the amount of proteolysis is directly measured by fluorescence measurement at T=0 and T=120 (excitation at 320 nm and emission at 405 nm). Results are expressed in RFU (Relative Fluorescence Units), as difference between T120 and T0.
(§2) A best-fit curve is fitted by a minimum sum of squares method to the plot of % Controlmin versus compound concentration. From this an IC50 value (inhibitory concentration causing 50% inhibition of activity) can be obtained.

[1] = system: Abeta 1-42 produced and secreted into the medium of human neuroblastoma SKNBE2 cells; experiment: Cellular αLisa assay in SKNBE2 cells; type: cell-based; settings: human neuroblastoma SKNBE2 cells expressing hAPP695, 18 hours incubation
Method: Cellular αLisa Assay in SKNBE2 Cells
In two αLisa assays the levels of Abeta 1-42 produced and secreted into the medium of human neuroblastoma SKNBE2 cells are quantified. The assay is based on the human neuroblastoma SKNBE2 expressing the wild type Amyloid Precursor Protein (hAPP695). The compounds are diluted and added to these cells, incubated for 18 hours and then measurements of Abeta 1-42 are taken. Abeta 1-42 are measured by sandwich αLisa. αLisa is a sandwich assay using biotinylated antibody AbN/25 attached to streptavidin coated beads and antibody cAb42/26 conjugated acceptor beads for the detection of Abeta 1-42 respectively. In the presence of Abeta 1-42, the beads come into close proximity. The excitation of the donor beads provokes the release of singlet oxygen molecules that trigger a cascade of energy transfer in the acceptor beads, resulting in light emission. Light emission is measured after 1 hour incubation (excitation at […] and emission at 615 nm).
as §2

BACE2 = molecular target: T2, BACE2 (Homo sapiens, UniProt Q9Y5Z0); experiment: BACE2 biochemical FRET based assay; settings: recombinant BACE2, 450 minutes at room temperature, pH 5.0; for IC50: read-out: Biochemical FRET based assay pIC50 (converted)
T2 construct: recombinant BACE2 protein in a final concentration of 0.4 μg/ml
T2 sequence (Q9Y5Z0 63-518): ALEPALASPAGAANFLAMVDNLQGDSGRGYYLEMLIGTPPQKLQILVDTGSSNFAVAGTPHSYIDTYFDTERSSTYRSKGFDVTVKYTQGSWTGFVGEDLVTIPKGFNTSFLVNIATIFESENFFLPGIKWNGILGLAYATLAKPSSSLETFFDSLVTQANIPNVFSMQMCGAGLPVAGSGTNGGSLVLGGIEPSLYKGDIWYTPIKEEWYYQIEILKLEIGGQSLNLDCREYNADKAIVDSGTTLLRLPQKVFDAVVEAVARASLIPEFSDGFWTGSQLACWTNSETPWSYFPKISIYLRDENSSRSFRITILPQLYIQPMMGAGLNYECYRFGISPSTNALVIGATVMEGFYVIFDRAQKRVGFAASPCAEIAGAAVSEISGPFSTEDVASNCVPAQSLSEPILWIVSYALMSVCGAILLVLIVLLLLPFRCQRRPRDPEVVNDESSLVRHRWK
Description: BACE2 Biochemical FRET Based Assay
as §1, with “assay” for “assay is an APP derived 13 amino acids peptide that”, “the beta-site APP-cleaving enzyme,” for “BACE1,”
Briefly in a 384-well format recombinant BACE2 protein in a final concentration of 0.4 μg/ml is incubated for 450 minutes at room temperature with 10 μM substrate in incubation buffer (50 mM Citrate buffer pH 5.0, 0.05% PEG, no DMSO) in the absence or presence of compound. Next the amount of proteolysis is directly measured by fluorescence measurement at T=0 and T=450 (excitation at 320 nm and emission at 405 nm). Results are expressed in RFU (Relative Fluorescence Units), as difference between T450 and T0.
as §2

Row | IC50 (BACE1) | Cellular αLisa assay in SKNBE2 cells Abeta 42 pIC50 [1] | IC50 (BACE2) | Biochemical FRET based assay pIC50 (BACE1) | Biochemical FRET based assay pIC50 (BACE2) | Compound
1 | 35.5 nM | 7.37 | 468 nM | – | – | CC1OCC2(c3cc(NC(=O)c4ccc(C#N)cn4)cc(F)c3F)N=C(N)C(C)(C#N)CC12 (single isomer, unassigned) [33c]
2 | 708 nM | 5.78 | 8910 nM | – | – | CC1OCC2(c3cc(NC(=O)c4ccc(C#N)cn4)cc(F)c3F)N=C(N)C(C)(C#N)CC12 (single isomer, unassigned) [33d]
3 | 6.31 nM | 7.57 | 263 nM | – | – | CC1(C#N)CC2C(C(F)(F)F)OCC2(c2cc(NC(=O)c3cnc(-n4cncn4)cn3)ccc2F)N=C1N (single isomer, unassigned) [34a]
4 | 1020 nM | 5.31 | > 10000 nM | – | – | CC1(C#N)CC2C(C(F)(F)F)OCC2(c2cc(NC(=O)c3cnc(-n4cncn4)cn3)ccc2F)N=C1N (single isomer, unassigned) [34b]
5 | 5.62 nM | 8.32 | 83.2 nM | – | – | CC1OCC2(c3cc(NC(=O)c4ccc(OC(F)F)cn4)ccc3F)N=C(N)C(C)(C#N)CC12 (single isomer, unassigned) [35a]
6 | 741 nM | 6.11 | > 10000 nM | – | – | CC1OCC2(c3cc(NC(=O)c4ccc(OC(F)F)cn4)ccc3F)N=C(N)C(C)(C#N)CC12 (single isomer, unassigned) [35b]
7 | – | <5.05 | – | <5 | <5 | COc1cnc(C(=O)Nc2ccc(F)c([C@@]34CO[C@@H](C)[C@@H]3C[C@@](C)(C#N)C(N)=N4)c2)cn1 [5c]
8 | – | 8.12 | – | 7.89 | 6.68 | C[C@H]1OC[C@]2(c3cc(NC(=O)c4ccc(C#N)cn4)ccc3F)N=C(N)[C@@](C)(C#N)C[C@H]12 [6b]
9 | – | 5.14 | – | 5.12 | <5 | C[C@@H]1OC[C@@]2(c3cc(NC(=O)c4ccc(C#N)cn4)ccc3F)N=C(N)[C@](C)(C#N)C[C@@H]12 [6c]
10 | – | 5.32 | – | 5.97 | <5 | C[C@]1(C#N)C[C@H]2[C@H](C(F)(F)F)OC[C@@]2(c2cc(NC(=O)c3cnc(OCF)cn3)ccc2F)N=C1N [7c]
11 | – | 7.33 | – | 7.68 | 6.24 | C[C@]1(C#N)C[C@@H]2[C@@H](C(F)(F)F)OC[C@]2(c2cc(NC(=O)c3cnc(OCF)cn3)ccc2F)N=C1N [7e]
12 | – | 5.43 | – | 5.74 | <5 | C[C@@]1(C#N)C[C@H]2[C@H](C(F)(F)F)OC[C@@]2(c2cc(NC(=O)c3cnc(OCF)cn3)ccc2F)N=C1N [7f]
13 | – | 8.17 | – | 8.75 | 8.46 | C[C@@]1(C#N)C[C@@H]2[C@@H](C(F)(F)F)OC[C@]2(c2cc(NC(=O)c3ncc(Cl)cn3)ccc2F)N=C1N [8c]
14 | – | 5.1 | – | 5.37 | 5.08 | C[C@]1(C#N)C[C@H]2[C@H](C(F)(F)F)OC[C@@]2(c2cc(NC(=O)c3ncc(Cl)cn3)ccc2F)N=C1N [8d]
15 | – | 8.58 | – | 8.53 | 6.88 | N#Cc1ccc(C(=O)Nc2ccc(F)c([C@]34CO[C@H](C(F)(F)F)[C@H]3CCC(N)=N4)c2)nc1 [11a]

Second part, the compound before the results:

Row | Compound | IC50 (BACE1) | Cellular αLisa assay in SKNBE2 cells Abeta 42 pIC50 [1] | IC50 (BACE2) | Biochemical FRET based assay pIC50 (BACE1) | Biochemical FRET based assay pIC50 (BACE2)
16 | COc1cnc(C(=O)Nc2ccc(F)c([C@@]34CO[C@@H](C)[C@@H]3C[C@](C)(C#N)C(N)=N4)c2)cn1 [1a] | – | 5.12 | – | 5.05 | <5
17 | COc1cnc(C(=O)Nc2ccc(F)c([C@]34CO[C@H](C)[C@H]3C[C@@](C)(C#N)C(N)=N4)c2)cn1 [1b] | – | 8.47 | – | 7.89 | 7.21
18 | C[C@@]1(C#N)C[C@@H]2[C@@H](C(F)(F)F)OC[C@]2(c2cc(NC(=O)c3ccc(F)cn3)ccc2F)N=C1N [2c] | – | 8.32 | – | 8.73 | 8.3
19 | C[C@]1(C#N)C[C@H]2[C@H](C(F)(F)F)OC[C@@]2(c2cc(NC(=O)c3ccc(F)cn3)ccc2F)N=C1N [2d] | – | <5.05 | – | 5 | <5
20 | C[C@@]1(C#N)C[C@H]2[C@H](C(F)(F)F)OC[C@@]2(c2cc(NC(=O)c3ccc(F)cn3)ccc2F)N=C1N [2e] | – | <5.05 | – | <5 | <5
21 | C[C@]1(C#N)C[C@@H]2[C@@H](C(F)(F)F)OC[C@]2(c2cc(NC(=O)c3ccc(F)cn3)ccc2F)N=C1N [2f] | – | 7.47 | – | 7.83 | 7.35
22 | C[C@]1(C#N)C[C@H]2[C@H](C(F)(F)F)OC[C@@]2(c2cc(NC(=O)c3ccc(C#N)cn3)ccc2F)N=C1N [3d] | – | <5.05 | – | 5.02 | <5
23 | C[C@@]1(C#N)C[C@H]2[C@H](C(F)(F)F)OC[C@@]2(c2cc(NC(=O)c3ccc(C#N)cn3)ccc2F)N=C1N [3e] | – | 5.34 | – | 5.84 | <5
24 | C[C@]1(C#N)C[C@@H]2[C@@H](C(F)(F)F)OC[C@]2(c2cc(NC(=O)c3ccc(C#N)cn3)ccc2F)N=C1N [3f] | – | 8.1 | – | 8.33 | 6.88
25 | C[C@@H]1OC[C@@]2(c3cc(NC(=O)c4ccc(C#N)cn4)ccc3F)N=C(N)[C@@](C)(C#N)C[C@@H]12 [4c] | – | 6.22 | – | 6.28 | 5.27
26 | COc1cnc(C(=O)Nc2ccc(F)c([C@]34CO[C@H](C)[C@H]3C[C@](C)(C#N)C(N)=N4)c2)cn1 [5b] | – | 7.46 | – | 7.06 | 6.17
